Counter-ions that a name gives are not always drawn.
Test system: PAM 212 keratinocytes
Assay: Photo-induced growth inhibition assay against PAM 212 keratinocytes (UVA activated)
Format: cell-based
Details: 1.28 J/cm^2 UVA (320-400 nm), cells counted after 4-5 days of growth, read-out: IC50 (concentration at which photoactivated test compound inhibited growth by 50%)
Method: The photobiological activity was assayed using a keratinocyte cell line grown in a monolayer culture. In this assay, PAM 212 keratinocytes were grown in Dulbecco's Modified Eagle's medium supplemented with 10% newborn calf serum in a 5% carbon dioxide incubator. Cells were inoculated into 6-well Falcon plastic culture dishes at 25,000 cells per well. After 24 hours, the medium was charged to fresh growth medium supplemented with increasing concentrations of the test compounds or the control medium. Controls and test concentrations were analyzed in triplicate.
These plates were incubated in a 37° C. carbon dioxide incubator. After 30 minutes, culture plates were exposed to UVA light (UVA, 320-400 nm) emitted from a bank of four BLB fluorescence light tubes (F40 BL, Sylvania) placed approximately 10 cm above the cell culture plates. The incident light on the culture plates was 2.4 mW/cm^2 as measured with an International Light UV radiometer, Model IL442A). […]
After completion of the irradiation phase, the cell culture medium was drained, the cells were refed with fresh growth medium and then re-incubated with carbon dioxide incubator to allow for cell growth. […] The cells were detached from the plates with trypsin and counted in a Coulter Counter. For control cells or for cells treated with test compounds, cell growth was determined as a percentage of control.

| Compound | IC50 |
| --- | --- |
| CN(C)CCOc1c2c(cc3ccc(=O)oc13)CCO2 [Formula I R=H, R1=H, A-B=—CH2—CH2—, 8-[2-(N,N-dimethylamino)ethoxy]-4′,5′-dihydropsoralen hydrochloride salt] | 13 µM |
| 8-[2-(N,N-dimethylamino)ethoxyl-psoralen hydrochloride salt [Formula I (R=H, R1=H, A-B=—CH═CH—)] | 0.012 µM |

Source: patent US8071642B2, “Dimethyl amino ethyl ether psoralens and methods for their production and use” (Rutgers, The State University of New Jersey, priority 2007, dated 2011)
